According to patent EP4800015A1, “AZABICYCLO DERIVATIVE AND PREPARATION METHOD THEREFOR, AND USE” (Zhejiang Hisun Pharmaceutical Co., Ltd., priority 2023, dated 2025):
pIC50: −log10 of the molar value.

target: T1, recombinant human WRN (Homo sapiens, UniProt Q14191); assay: Inhibition of WRN enzyme activity (ATPase), ADP-Glo Kinase Assay; assay type: biochemical; conditions: WRN protein 5 nM, Flap 0.1 nM, ATP 30 µM
T1 construct: purchased BPS 101264
Description: The following method was used to determine the degree of inhibition of recombinant human WRN ATPase activity by the compounds of the present disclosure in vitro. In this method, ADP-Glo™ Kinase Assay kit (catalog No. V9102) from Promega was used. Detailed experimental procedures can be found in the kit manual.
The experimental procedure was briefly described as follows: test compounds were first dissolved in DMSO to prepare stock solutions, followed by serial dilution using reaction buffer (30 mM Tris, pH 7.5, 2 mM MgCl2, 50 mM NaCl, 0.02% BSA, 0.1% Pluronic F127), with final concentrations of test compounds in the reaction system ranging from 1000 nM to 0.004 nM; WRN protein (purchased from BPS, catalog No. 101264), substrate 5-flap oligonucleotide (Flap26) (synthesized by Shanghai Generay Biotech Co., Ltd., sequence 5'-[…]-3'), and ATP working solution (from ADP-Glo™ Kinase Assay kit component V915A) were prepared using reaction buffer. Reactions were performed in 384-well microplates. At first the compounds and recombinant human WRN protein (final concentration 5 nM) were added to the wells and the plate was incubated at room temperature for 15 minutes, then Flap solution (final concentration 0.1 nM) and ATP solution (final concentration 30 µM) were added to the reaction solution and the plate was incubated at room temperature for 10 minutes. Subsequently, 5 µL of ADP-Glo Reagent was added to the reaction system and incubated at room temperature for 40 minutes. Then 10 µL of Kinase Detection Reagent was added to the reaction system and incubated at room temperature for 30 minutes. After the incubation was completed, chemiluminescence intensity values of each well were measured using a microplate reader in luminescence mode. The percentage inhibition of the compounds at each concentration was calculated by comparison with the luminescence intensity values of the control group (0.1% DMSO), and IC50 values of compounds were obtained by nonlinear regression analysis of compound concentration logarithm-inhibition rate using GraphPad Prism 9 software, as shown in Table 1.
The IC50 value results of the compounds of the present disclosure are expressed as AA and A, respectively as follows: "AA" indicates IC50 ≤ 1 nM; "A" indicates 1 nM < IC50 ≤ 100 nM. Table 1 IC50 of the compounds of the present disclosure for inhibiting WRN enzyme activity (ATPase)

T1 sequence (Q14191 whole entry): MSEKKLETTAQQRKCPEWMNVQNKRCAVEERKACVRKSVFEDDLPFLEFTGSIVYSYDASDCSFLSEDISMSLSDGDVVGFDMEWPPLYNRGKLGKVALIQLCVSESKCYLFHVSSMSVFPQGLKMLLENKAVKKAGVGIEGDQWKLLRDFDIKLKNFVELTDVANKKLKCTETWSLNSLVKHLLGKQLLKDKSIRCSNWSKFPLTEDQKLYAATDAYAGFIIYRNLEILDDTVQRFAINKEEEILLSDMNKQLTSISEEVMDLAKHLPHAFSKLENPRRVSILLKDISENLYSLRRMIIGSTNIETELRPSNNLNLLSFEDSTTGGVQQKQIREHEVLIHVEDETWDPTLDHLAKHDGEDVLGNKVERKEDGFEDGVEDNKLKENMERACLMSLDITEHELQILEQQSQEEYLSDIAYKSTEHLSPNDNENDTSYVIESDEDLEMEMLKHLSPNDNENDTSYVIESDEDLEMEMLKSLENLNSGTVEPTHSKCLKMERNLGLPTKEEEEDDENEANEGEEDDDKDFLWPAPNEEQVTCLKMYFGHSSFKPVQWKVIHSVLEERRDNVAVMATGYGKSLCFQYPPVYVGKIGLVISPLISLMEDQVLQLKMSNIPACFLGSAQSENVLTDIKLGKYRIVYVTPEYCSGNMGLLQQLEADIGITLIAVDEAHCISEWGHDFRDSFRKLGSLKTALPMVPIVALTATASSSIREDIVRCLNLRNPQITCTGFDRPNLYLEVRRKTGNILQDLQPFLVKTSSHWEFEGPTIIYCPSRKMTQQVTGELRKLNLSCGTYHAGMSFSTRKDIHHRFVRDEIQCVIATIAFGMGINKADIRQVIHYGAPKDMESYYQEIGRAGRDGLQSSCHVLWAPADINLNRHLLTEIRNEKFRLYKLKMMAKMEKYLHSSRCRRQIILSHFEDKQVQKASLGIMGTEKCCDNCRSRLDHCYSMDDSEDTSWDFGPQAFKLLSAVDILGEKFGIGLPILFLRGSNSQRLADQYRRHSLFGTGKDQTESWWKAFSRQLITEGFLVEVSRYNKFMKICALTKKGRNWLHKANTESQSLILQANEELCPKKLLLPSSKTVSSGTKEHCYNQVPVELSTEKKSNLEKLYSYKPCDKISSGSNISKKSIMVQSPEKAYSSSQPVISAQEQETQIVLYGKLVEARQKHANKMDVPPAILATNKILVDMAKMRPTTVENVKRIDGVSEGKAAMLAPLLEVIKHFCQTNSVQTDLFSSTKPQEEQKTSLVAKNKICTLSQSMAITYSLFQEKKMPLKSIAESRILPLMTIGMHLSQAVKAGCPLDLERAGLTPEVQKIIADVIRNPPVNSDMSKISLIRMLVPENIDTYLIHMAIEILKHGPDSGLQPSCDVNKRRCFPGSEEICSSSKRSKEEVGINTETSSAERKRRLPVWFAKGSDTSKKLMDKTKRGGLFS

Row | SMILES | pIC50
1 | CCc1c(N2CCN(C(=O)c3ncnc(C)c3O)CC2)c(=O)n2nc(-c3coc4ccccc34)nc2n1CC(=O)Nc1ccc(C(F)(F)F)cc1Cl [Example 35, 2-(2-(benzofuran-3-yl)-5-ethyl-6-(4-(5-hydroxy-6-methylpyrimidine-4-carbonyl)piperazin-1-yl)-7-oxo-[1,2,4]triazolo[1,5-a]pyrimidin-4(7H)-yl)-N-(2-chloro-4-(trifluoromethyl)phenyl) acetamide] | 7.00 to 9.00

same assay, conditions: WRN protein 5 nM, Flap 0.1 nM, ATP 30 µM; read-out: IC50

Row | SMILES | pIC50
2 | CCc1nc2n(CC(=O)Nc3ccc(C(F)(F)F)cc3Cl)c(CC)c(N3CCN(C(=O)c4ncnc(C)c4O)CC3)c(=O)n2n1 [Example 28, N-(2-chloro-4-(trifluoromethyl)phenyl)-2-(2,5-diethyl-6-(4-(5-hydroxy-6-methylpyrimidine-4-carbonyl)piperazin-1-yl)-7-oxo-[1,2,4]triazolo[1,5-a]pyrimidin-4(7H)-yl)acetamide] | 7.00 to 9.00
3 | Cc1ncnc(C(=O)N2CCN(c3c(C)n(CC(=O)Nc4ccc(C(F)(F)F)cc4Cl)c4nc(C5=CC6CC(=O)CC6C5)nn4c3=O)CC2)c1O (stereo not shown) [Example 32, N-(2-chloro-4-(trifluoromethyl)phenyl)-2-(6-(4-(5-hydroxy-6-methylpyrimidine-4-carbonyl)piperazin-1-yl)-5-methyl-7-oxo-2-(5-oxo-1,3a,4,5,6,6a-hexahydropentalen-2-yl)-[1,2,4]triazolo[1,5-a]pyrimidin-4(7H)-yl)acetamide] | 7.00 to 9.00
4 | CCc1c(N2CCN(C(=O)c3ncnc(C)c3O)CC2)c(=O)n2nc(/C=C(\C)C3CC3)nc2n1CC(=O)Nc1ccc(C(F)(F)F)cc1Cl [Example 36, (E)-N-(2-chloro-4-(trifluoromethyl)phenyl)-2-(2-(2-cyclopropylprop-1-en-1-yl)-5-ethyl-6-(4-(5-hydroxy-6-methylpyrimidine-4-carbonyl)piperazin-1-yl)-7-oxo-[1,2,4]triazolo[1,5-a]pyrimidin-4(7H)-yl)acetamide] | 7.00 to 9.00
5 | CCc1c(N2CCN(C(=O)c3ncnc(C)c3O)CC2)c(=O)n2nc(/C=C/c3ccccn3)nc2n1CC(=O)Nc1ccc(C(F)(F)F)cc1Cl [Example 37, (E)-N-(2-chloro-4-(trifluoromethyl)phenyl)-2-(5-ethyl-6-(4-(5-hydroxy-6-methylpyrimidine-4-carbonyl)piperazin-1-yl)-7-oxo-2-(2-(pyridin-2-yl)vinyl)-[1,2,4]triazolo[1,5-a]pyrimidin-4(7H)-yl)a cetamide] | 7.00 to 9.00
6 | CCc1c(N2CCN(C(=O)c3ncccc3O)CC2)c(=O)n2nc(C3=CC4CC4C3)nc2n1CC(=O)Nc1ccc(C(F)(F)F)cc1Cl (stereo not shown) [Example 38, 2-(2-(bicyclo[3.1.0]hex-2-en-3-yl)-5-ethyl-6-(4-(3-hydroxypicolinoyl)piperazin-1-yl)-7-oxo-[1,2, 4]triazolo[1,5-a]pyrimidin-4(7H)-yl)-N-(2-chloro-4-(trifluoromethyl)phenyl)acetamide] | > 9.00
7 | CCc1c(N2CCN(C(=O)c3ncccc3O)CC2)c(=O)n2nc(C3=CC4CCC3C4)nc2n1CC(=O)Nc1ccc(C(F)(F)F)cc1Cl (stereo not shown) [Example 41, 2-(2-(bicyclo[2.2.1]hept-2-en-2-yl)-5-ethyl-6-(4-(3-hydroxypicolinoyl)piperazin-1-yl)-7-oxo-[1,2,4]triazolo[1,5-a]pyrimidin-4(7H)-yl)-N-(2-chloro-4-(trifluoromethyl)phenyl)acetamide] | 7.00 to 9.00
8 | CCc1c(N2CCN(C(=O)c3ncccc3O)CC2)c(=O)n2nc(C3=CCCCCC3)nc2n1CC(=O)Nc1ccc(S(F)(F)(F)(F)F)cc1 [Example 46, 2-(2-(cyclohept-1-en-1-yl)-5-ethyl-6-(4-(3-hydroxypicolinoyl)piperazin-1-yl)-7-oxo-[1,2,4]triazolo[1,5-a]pyrimidin-4(7H)-yl)-N-(4-(pentafluoro-λ^6-sulfaneyl)phenyl)acetamide] | 7.00 to 9.00
9 | CCc1c(N2CCN(C(=O)c3ncccc3O)CC2)c(=O)n2nc(C3=CC4CC(=O)CC4C3)cc2n1CC(=O)Nc1ccc(C(F)(F)F)cc1Cl (stereo not shown) [Example 56, N-(2-chloro-4-(trifluoromethyl)phenyl)-2-(5-ethyl-6-(4-(3-hydroxypicolinoyl)piperazin-1-yl)-7-oxo-2-(5-oxo-1,3a,4,5,6,6a-hexahydropentalen-2-yl)pyrazolo[1,5-a]pyrimidin-4(7H)-yl)acetamide] | 7.00 to 9.00

Other lines, results leading:

Row | pIC50 | SMILES
10 | 7.00 to 9.00 | CCc1c(N2CCN(C(=O)c3ccncc3O)CC2)c(=O)n2nc(C3=CCCCCC3)nc2n1CC(=O)Nc1ccc(C(C)(C)C)cc1 [Example 24, N-(4-(tert-butyl)phenyl)-2-(2-(cyclohept-1-en-1-yl)-5-ethyl-6-(4-(3-hydroxyisonicotinoyl)piperazin-1-yl)-7-oxo-[1,2,4]triazolo[1,5-a]pyrimidin-4(7H)-yl)acetamide]
11 | 7.00 to 9.00 | CCc1c(N2CCN(C(=O)c3ccncc3O)CC2)c(=O)n2nc(C3=CCCCCC3)nc2n1CC(=O)Nc1ccc(S(F)(F)(F)(F)F)cc1 [Example 25, 2-(2-(cyclohept-1-en-1-yl)-5-ethyl-6-(4-(3-hydroxyisonicotinoyl)piperazin-1-yl)-7-oxo-[1,2,4]triazolo[1,5-a]pyrimidin-4(7H)-yl)-N-(4-(pentafluoro-λ^6-sulfaneyl)phenyl)acetamide]
12 | 7.00 to 9.00 | CCc1c(N2CCN(C(=O)c3ncnc(C)c3O)CC2)c(=O)n2nc(C3=CCCCCC3)nc2n1CC(=O)Nc1ccc(C(C)(C)C)cc1 [Example 26, N-(4-(tert-Butyl)phenyl)-2-(2-(cyclohept-1-en-1-yl)-5-ethyl-6-(4-(5-hydroxy-6-methylpyrimidine-4-carbonyl)piperazin-1-yl)-7-oxo-[1,2,4]triazolo[1,5-a]pyrimidin-4(7H)-yl)acetamide]
13 | 7.00 to 9.00 | CCc1c(N2CCN(C(=O)c3ccncc3O)CC2)c(=O)n2nc(C3=CCCCCC3)nc2n1CC(=O)Nc1ccc(C(F)(F)F)cc1C [Example 42, 2-(2-(cyclohept-1-en-1-yl)-5-ethyl-6-(4-(3-hydroxyisonicotinoyl)piperazin-1-yl)-7-oxo-[1,2,4]triazolo[1,5-a]pyrimidin-4(7H)-yl)-N-(2-methyl-4-(trifluoromethyl)phenyl)acetamide]
14 | 7.00 to 9.00 | CCc1c(N2CCN(C(=O)c3ccncc3O)CC2)c(=O)n2nc(C3=CCCCCC3)nc2n1CC(=O)Nc1ccc(C(F)(F)F)cc1OC [Example 43, 2-(2-(cyclohept-1-en-1-yl)-5-ethyl-6-(4-(3-hydroxyisonicotinoyl)piperazin-1-yl)-7-oxo-[1,2,4]triazolo[1,5-a]pyrimidin-4(7H)-yl)-N-(2-methoxy-4-(trifluoromethyl)phenyl)acetamide]
15 | 7.00 to 9.00 | CCc1c(N2CCN(C(=O)c3ccncc3O)CC2)c(=O)n2nc(C3=CCCCCC3)nc2n1CC(=O)Nc1ccc(C(F)(F)F)cc1F [Example 44, 2-(2-(cyclohept-1-en-1-yl)-5-ethyl-6-(4-(3-hydroxyisonicotinoyl)piperazin-1-yl)-7-oxo-[1,2,4]triazolo[1,5-a]pyrimidin-4(7H)-yl)-N-(2-fluoro-4-(trifluoromethyl)phenyl)acetamide]
16 | 7.00 to 9.00 | CCc1c(N2CCN(C(=O)c3ncccc3O)CC2)c(=O)n2nc(C3=CCCCCC3)nc2n1CC(=O)Nc1ccc(C(F)(F)F)cc1Cl [Example 45, N-(2-chloro-4-(trifluoromethyl)phenyl)-2-(2-(cyclohept-1-en-1-yl)-5-ethyl-6-(4-(3-hydroxypicolinoyl)piperazin-1-yl)-7-oxo-[1,2,4]triazolo[1,5-a]pyrimidin-4(7H)-yl)acetamide]
17 | 7.00 to 9.00 | CCc1c(N2CCN(C(=O)c3ncnc(C)c3O)CC2)c(=O)n2nc(C3=CCCCCC3)nc2n1CC(=O)Nc1ccc(C(F)(F)F)cc1OC [Example 48, 2-(2-(cyclohept-1-en-1-yl)-5-ethyl-6-(4-(5-hydroxy-6-methylpyrimidine-4-carbonyl)piperazin-1-yl)-7-oxo-[1,2,4]triazolo[1,5-a]pyrimidin-4(7H)-yl)-N-(2-methoxy-4-(trifluoromethyl)phenyl)ace tamide]
18 | 7.00 to 9.00 | CCc1c(N2CCN(C(=O)c3ncnc(C)c3O)CC2)c(=O)n2nc(C3=CC4(CCC4)C3)nc2n1CC(=O)Nc1ccc(C(F)(F)F)cc1Cl [Example 50, N-(2-chloro-4-(trifluoromethyl)phenyl)-2-(5-ethyl-6-(4-(5-hydroxy-6-methylpyrimidine-4-carbonyl)piperazin-1-yl)-7-oxo-2-(spiro[3.3]hept-1-en-2-yl)-[1,2,4]triazolo[1,5-a]pyrimidin-4(7H)-yl)ac etamide]
19 | 7.00 to 9.00 | CCc1c(N2CCN(C(=O)c3ncccc3O)CC2)c(=O)n2nc(C3=CC4(CCC4)C3)nc2n1CC(=O)Nc1ccc(C(F)(F)F)cc1Cl [Example 51, N-(2-chloro-4-(trifluoromethyl)phenyl)-2-(5-ethyl-6-(4-(3-hydroxypicolinoyl)piperazin-1-yl)-7-oxo-2-(spiro[3.3]hept-1-en-2-yl)-[1,2,4]triazolo[1,5-a]pyrimidin-4(7H)-yl)acetamide]
